Source: patent publication US11147272B2, “Pyridone compounds and agricultural and horticultural fungicides comprising the same as active ingredients” (MITSUI CHEMICALS AGRO, INC., priority 2017, dated 2021)

Legend:
Magnaporthe grisea = assay: whole plant or invertebrate; format: in vivo; conditions: Blast on rice; class of control value
Alternaia brassicicola = assay: Test Example C: Alternaria sooty spot on cabbage; format: in vivo; conditions: Alternaria sooty spot on cabbage; class of control value
From the text: Seeds of a test plant (cabbage variety: Shikidori) were planted and cultivated until the cotyledons extended.
<Control Value> Control value=100{1−(n/3)}

Puccinia recondita = assay: Test Example E: Brown rust on wheat; format: in vivo; conditions: Brown rust on wheat; class of control value
Phytophthora infestans = assay: whole plant or invertebrate; format: in vivo; conditions: Late blight on tomato; class of control value
Botrytis cinerea = assay: Test Example B: Gray mold on tomato; conditions: Gray mold on tomato; class of control value
Plasmopara viticola = assay: Test Example G: Downy mildew on vine; conditions: Downy mildew on vine (Neomuscat); 250 ppm spray, 2.5 ml/pot; assessed 7 to 10 days after inoculation
[1] = test system: Colletotrichum orbiculare; assay: Test Example H: Anthracnose on cucumber; conditions: Anthracnose on cucumber (Sagami Hanjiro); 250 ppm spray, 2.5 ml/pot; assessed 6 to 10 days after inoculation
[2] = test system: Blumeria graminis f. sp. hordei; assay: Test Example D: Powdery mildew on barley; conditions: Powdery mildew on barley; class of control value

SMILES	Test A control value class (Magnaporthe grisea)	Test C control value class (Alternaia brassicicola)	Test E control value class (Puccinia recondita)	Test F control value class (Phytophthora infestans)	Test B control value class (Botrytis cinerea)	Test G control value class (Plasmopara viticola)	Test H control value class [1]	Test D control value class [2]
CCn1c(-c2c(F)cc(OC)cc2F)c(C(C)(O)CC)cc(Cl)c1=O (centres unmarked) [compound 59]	H (more than 50% control value)	H (more than 50% control value)	H (more than 50% control value)	L (50% or less control value)	H (more than 50% control value)	H (more than 50% control value)	H (more than 50% control value)	H (more than 50% control value)
CCn1c(-c2c(F)cc(OC)cc2F)c(COC(C)C)cc(Cl)c1=O [compound 60]	H (more than 50% control value)	H (more than 50% control value)	H (more than 50% control value)	L (50% or less control value)	H (more than 50% control value)	H (more than 50% control value)	H (more than 50% control value)	H (more than 50% control value)
CCn1c(-c2c(F)cc(OC)cc2F)c(C(C)(F)CC)cc(Cl)c1=O (centres unmarked) [compound 61]	H (more than 50% control value)	H (more than 50% control value)	H (more than 50% control value)	L (50% or less control value)	H (more than 50% control value)	H (more than 50% control value)	H (more than 50% control value)	H (more than 50% control value)
CCOCc1cc(Cl)c(=O)n(CC)c1-c1c(F)cccc1F [compound 62]	H (more than 50% control value)	H (more than 50% control value)	H (more than 50% control value)	L (50% or less control value)	H (more than 50% control value)	H (more than 50% control value)	H (more than 50% control value)	H (more than 50% control value)
CCn1c(-c2c(F)cccc2F)c(C(OC)C(C)C)cc(Cl)c1=O (centres unmarked) [compound 63]	H (more than 50% control value)	H (more than 50% control value)	H (more than 50% control value)	L (50% or less control value)	H (more than 50% control value)	H (more than 50% control value)	H (more than 50% control value)	H (more than 50% control value)
CCn1c(-c2c(F)cc(F)cc2F)c(C(O)C(C)C)cc(Cl)c1=O (centres unmarked) [compound 64]	H (more than 50% control value)	H (more than 50% control value)	H (more than 50% control value)	L (50% or less control value)	H (more than 50% control value)	H (more than 50% control value)	H (more than 50% control value)	H (more than 50% control value)
CCn1c(-c2c(F)cc(F)cc2F)c(C(OC)C(C)C)cc(Cl)c1=O (centres unmarked) [compound 65]	H (more than 50% control value)	H (more than 50% control value)	H (more than 50% control value)	L (50% or less control value)	H (more than 50% control value)	L (50% or less control value)	H (more than 50% control value)	H (more than 50% control value)
CCn1c(-c2c(F)cc(F)cc2F)c(C(=O)C(C)C)cc(Cl)c1=O [compound 66]	H (more than 50% control value)	H (more than 50% control value)	H (more than 50% control value)	L (50% or less control value)	H (more than 50% control value)	L (50% or less control value)	H (more than 50% control value)	H (more than 50% control value)
CCn1c(-c2c(F)cc(F)cc2F)c(C(C)(C)C)ccc1=O [compound 67]	L (50% or less control value)	H (more than 50% control value)	H (more than 50% control value)	L (50% or less control value)	H (more than 50% control value)	L (50% or less control value)	H (more than 50% control value)	H (more than 50% control value)
Cn1c(-c2c(F)cc(F)cc2F)c(C(C)(C)C)ccc1=O [compound 68]	L (50% or less control value)	H (more than 50% control value)	H (more than 50% control value)	L (50% or less control value)	L (50% or less control value)	L (50% or less control value)	H (more than 50% control value)	L (50% or less control value)
CCn1c(-c2c(F)cc(F)cc2F)c(C(C)(C)C)cc(Cl)c1=O [compound 69]	H (more than 50% control value)	H (more than 50% control value)	H (more than 50% control value)	L (50% or less control value)	H (more than 50% control value)	L (50% or less control value)	L (50% or less control value)	L (50% or less control value)
CCn1c(-c2c(F)cc(F)cc2F)c(C(C)(C)C)cc(Br)c1=O [compound 70]	H (more than 50% control value)	H (more than 50% control value)	H (more than 50% control value)	L (50% or less control value)	H (more than 50% control value)	L (50% or less control value)	H (more than 50% control value)	H (more than 50% control value)
CCn1c(-c2c(F)cc(OC)cc2F)c(C(OC)C(C)C)cc(Cl)c1=O (centres unmarked) [compound 71]	H (more than 50% control value)	H (more than 50% control value)	H (more than 50% control value)	L (50% or less control value)	H (more than 50% control value)	L (50% or less control value)	H (more than 50% control value)	H (more than 50% control value)
CCOc1cc(F)c(-c2c(C(OC)C(C)C)cc(Cl)c(=O)n2CC)c(F)c1 (centres unmarked) [compound 72]	H (more than 50% control value)	H (more than 50% control value)	H (more than 50% control value)	L (50% or less control value)	H (more than 50% control value)	H (more than 50% control value)	H (more than 50% control value)	H (more than 50% control value)
CCn1c(-c2c(F)cc(OC)cc2F)c(C(=O)C(C)C)cc(Cl)c1=O [compound 73]	H (more than 50% control value)	H (more than 50% control value)	H (more than 50% control value)	L (50% or less control value)	H (more than 50% control value)	H (more than 50% control value)	H (more than 50% control value)	H (more than 50% control value)
CCn1c(-c2c(F)cc(OC)cc2F)c(C(C)(C)C)cc(Cl)c1=O [compound 74]	H (more than 50% control value)	H (more than 50% control value)	H (more than 50% control value)	L (50% or less control value)	H (more than 50% control value)	H (more than 50% control value)	H (more than 50% control value)	L (50% or less control value)
